Laboratory results as given in patent publication US9096591B2, “Tetracyclic compounds” (Medivation Technologies, Inc., priority 2007, dated 2015).
Where “and” joins values, the source holds several entries; their conditions need not be identical. Equal entries are not always repeated. Where two headings read alike, the source gives them in different places. Blank lines part the entries; values can stand above or below the compound they belong to.

Legend:
[1] = target: T1, human recombinant histamine H1 receptor (Homo sapiens, UniProt P35367); assay: Histamine H1 radioligand binding ([3H]Pyrilamine)
T1 construct: expressed in transfected cells; host or cells: CHO cells
T1 sequence (P35367 whole entry): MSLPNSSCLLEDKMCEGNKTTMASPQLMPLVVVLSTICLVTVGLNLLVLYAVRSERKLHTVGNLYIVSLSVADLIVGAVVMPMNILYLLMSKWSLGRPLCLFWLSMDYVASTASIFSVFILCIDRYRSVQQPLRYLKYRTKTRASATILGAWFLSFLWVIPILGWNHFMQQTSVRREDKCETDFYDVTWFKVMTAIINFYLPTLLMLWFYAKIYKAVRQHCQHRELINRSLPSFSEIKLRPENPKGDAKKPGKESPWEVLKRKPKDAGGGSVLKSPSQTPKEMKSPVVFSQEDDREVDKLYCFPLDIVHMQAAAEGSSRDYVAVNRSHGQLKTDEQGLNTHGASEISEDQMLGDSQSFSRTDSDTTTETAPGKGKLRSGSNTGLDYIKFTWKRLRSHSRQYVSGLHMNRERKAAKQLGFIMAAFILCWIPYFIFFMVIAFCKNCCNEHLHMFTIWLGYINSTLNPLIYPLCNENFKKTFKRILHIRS
Description: To evaluate in radioligand binding assays the activity of compounds of the invention, human recombinant histamine H1 receptor expressed in Chinese hamster ovary (CHO) cells (De Backer M D et al. Biochem. Biophys. Res Comm. 197(3):1601, 1993) in a modified Tris-HCl buffer (50 mM Tris-HCl, pH 7.4, 2 mM MgCl2, 100 mM NaCl, 250 mM Sucrose) were used. […] Non-specific binding was estimated in the presence of 1 μM pyrilamine. Receptor proteins were filtered and washed, the filters were then counted to determine [^3H]pyrilamine specifically bound. […] Biochemical assay results are presented as the percent inhibition of specific binding in Table 5.
To evaluate in radioligand binding assays the activity of compounds of the invention, human recombinant histamine H1 receptor expressed in Chinese hamster ovary (CHO) cells (De Backer, M. D. et al., Biochem. Biophys. Res. Comm. 197(3):1601, 1993) in a modified Tris-HCl buffer (50 mM Tris-HCl, pH 7.4, 2 mM MgCl2, 100 mM NaCl, 250 mM Sucrose) was used. […] Non-specific binding was estimated in the presence of 1 μM pyrilamine. Receptor proteins were filtered and washed, the filters were then counted to determine [^3H]Pyrilamine specifically bound. Compounds were screened at 1 μM, using 1% DMSO as vehicle. Biochemical assay results are presented as the percent inhibition of specific binding in Table 6.

[2] = target: T2, human recombinant histamine H2 receptor (Homo sapiens, UniProt P25021); assay: Histamine H2 radioligand binding ([125I]Aminopotentidine)
T2 construct: expressed in transfected cells; host or cells: CHO-K1 cells
T2 sequence (P25021 whole entry): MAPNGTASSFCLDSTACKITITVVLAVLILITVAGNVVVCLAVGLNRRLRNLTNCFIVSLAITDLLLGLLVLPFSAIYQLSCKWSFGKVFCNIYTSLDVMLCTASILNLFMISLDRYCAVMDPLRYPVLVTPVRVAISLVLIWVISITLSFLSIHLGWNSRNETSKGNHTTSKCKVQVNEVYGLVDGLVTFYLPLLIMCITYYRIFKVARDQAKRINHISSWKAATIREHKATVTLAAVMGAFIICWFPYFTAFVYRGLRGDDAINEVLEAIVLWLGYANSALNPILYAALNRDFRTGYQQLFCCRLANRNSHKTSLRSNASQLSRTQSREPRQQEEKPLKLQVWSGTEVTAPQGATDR
Description: Non-specific binding was estimated in the presence of 3 μM Tiotidine. […] Biochemical assay results are presented as the percent inhibition of specific binding in Table 5.
Non-specific binding was estimated in the presence of 3 μM Tiotidine. […] Compounds were screened at 1 μM, using 1% DMSO as vehicle. Biochemical assay results are presented as the percent inhibition of specific binding in Table 6.

[3] = test system: synaptosomes of cortex of rat brain; assay: Glutamate-induced 45Ca2+ uptake into synaptosomes; type: biochemical, Wistar rats; settings: for % Ca of control (control-100%), glutamate-induced 45Ca2+ uptake into synaptosomes: rat cortex synaptosomes
Description: Synaptosomes were obtained from cerebral cortex of newborn (9-10 days) Wistar rats using standard Hajos method. The brain was homogenized with 10 volumes of cooled 0.32 M sucrose at 900 rpm. The homogenate was centrifuged at 1500 g for 10 min. and the resulted supernatant was centrifuged at 10000 g for 20 min. The radioactive label was accumulated by suspension of the synaptosomal P2-fraction in the incubation buffer A having the following composition: 132 mM NaCl, 5 mM KCl, 5 mM HEPES, 10 mM glucose, pH 7.4 (protein concentration of approximately 1.5-2 mg/ml). The mixture was further incubated for 5 min with 200 μM glutamate at 37° C. and then ^45Ca^2+ uptake was stopped by filtration through GF/B filters (Whatman, England) followed by three washes with cold buffer B (145 mM KCl, 10 mM Tris, 5.4 mM Trilon B, pH 7.4). The radioactivity probes were analyzed by fluid scintillation beta-analyzer (TriCarb, Perkin Elmer). All tests were performed in three parallel trials in 2-3 independent experiments. The amount of ^45Ca^2+ uptake was estimated by calculating the difference of radioactive label during the stimulation with glutamate and without the stimulation with agonist.
Specific ^45Ca^2+ uptake was estimated using the following equation: K(43/21)=[(Ca4−Ca3)/(Ca2−Ca1)]100%, where
Ca1—^45Ca^2+ uptake for the Control (without glutamate and the compound tested),
[…] glutamate-induced ^45Ca^2+ uptake (glutamate only),
Ca3—^45Ca^2+ uptake in the presence of the compound tested (without glutamate),
Ca4—^45Ca^2+ uptake in the presence of glutamate and the testing compound.
Statistical analysis of the results was performed using Student's t-test.

[4] = test system: mice; assay: recognition test of new location of a known object (spatial memory); type: in vivo; settings: for time exploring the object in a new location, % of the total time / time exploring the object in the known position, % of the total time / effect of the dose on exploration time / memory (in words) / overall effect on memory (in words): mice; for overall effect on memory (in words): doses 0.05-1 mg/kg
[5] = 1 μM compound, […] [3H]Pyrilamine, read-out: Histamine Binding H1, percent inhibition of specific binding
[6] = 1 μM compound, 0.1 nM [125I]Aminopotentidine, read-out: Histamine Binding H2, percent inhibition of specific binding

- Histamine Binding H1, percent inhibition of specific binding ([1]; 1 μM compound, […] [3H]Pyrilamine): 3%
- Histamine Binding H2, percent inhibition of specific binding ([2]; 1 μM compound, 0.1 nM [125I]Aminopotentidine): 22%
Structure (SMILES): CN1CCc2c(c3cc(Cl)ccc3n2CCc2n[nH]c(=S)n2C)C1(C)C [Compound 220]

- inhibition at 0.01 µM ([1]; 10 nM (0.01 μM) compound, […] [3H]Pyrilamine, read-out: Histamine Binding H1, percent inhibition of specific binding): 85%
- inhibition at 0.1 µM ([1]; 0.1 μM compound, […] [3H]Pyrilamine, read-out: Histamine Binding H1, percent inhibition of specific binding): 101%
- inhibition at 1 µM [1, 5]: 103%
- inhibition at 0.1 µM ([2]; 0.1 μM compound, 0.1 nM [125I]Aminopotentidine, read-out: Histamine Binding H2, percent inhibition of specific binding): 89%
- inhibition at 1 µM [2, 6]: 98%
Structure (SMILES): FC(F)(F)c1ccc2c(c1)c1c(n2CCc2noc(-c3ccccc3)n2)CCN(C2CC2)C1 [Compound 222]

- inhibition at 1 µM [1, 5]: 100%
- inhibition at 1 µM [2, 6]: 94%
Structure (SMILES): CN1Cc2c(n(CCc3noc(-c4ccccc4)n3)c3ccc(Cl)cc23)CC12CC2 [Compound 223]

Structure (SMILES): Cc1ccc2c(c1)c1c(n2CCC(=O)N2CCC(NC(=O)OC(C)(C)C)CC2)CCN(C)C1 [Compound 226, tert-butyl 1-(3-(1,2,3,4-tetrahydro-2,8-dimethylpyrido[4,3-b]indol-5-yl)propanoyl)piperidin-4-ylcarbamate]
- inhibition at 1 µM [1, 5]: 87%
- inhibition at 1 µM [2, 6]: 96%

Structure (SMILES): Cc1ccc2c(c1)c1c(n2CCc2ccc(C(=O)O)nc2)CCN(C)C1=O [Compound 241]
- inhibition at 1 µM ([1]; read-out: Histamine Binding H1, percent inhibition of specific binding): 19%
- inhibition at 1 µM ([2]; read-out: Histamine Binding H2, percent inhibition of specific binding): 11%

- inhibition at 1 µM [1, 5]: 94%
- inhibition at 1 µM [2, 6]: 87%
Structure (SMILES): CN1Cc2c(n(CCc3noc(-c4ccc(Cl)cc4)n3)c3ccc(Cl)cc23)CC12CC2 [Compound 242]

Structure (SMILES): CN1CCc2c(c3ccccc3n2CCc2nc(-c3ccccc3)cs2)C1 [Compound C1-1]
- concentration at which glutamate-induced 45Ca2+ uptake into synaptosomes was increased [3]: 50 to 100 µM
- inhibition of glutamate-induced 45Ca2+ uptake into synaptosomes ([3]; 0.1-0.5 μM): ~13%
- glutamate-induced 45Ca2+ uptake into synaptosomes of rat cortex, % Ca of control (control-100%) ([3]; C 50 μM): 126.9%
- % Ca of control (control-100%), glutamate-induced 45Ca2+ uptake into synaptosomes ([3]; compound 0.1 μM): 85.5 ± 5.8%
- % Ca of control (control-100%), glutamate-induced 45Ca2+ uptake into synaptosomes ([3]; compound 0.5 μM): 86.9 ± 4.2%
- % Ca of control (control-100%), glutamate-induced 45Ca2+ uptake into synaptosomes ([3]; compound 1 μM): 100.3 ± 6.5%
- % Ca of control (control-100%), glutamate-induced 45Ca2+ uptake into synaptosomes ([3]; compound 5 μM): 98.8 ± 3.2%
- % Ca of control (control-100%), glutamate-induced 45Ca2+ uptake into synaptosomes ([3]; compound 10 μM): 91 ± 11.9%
- % Ca of control (control-100%), glutamate-induced 45Ca2+ uptake into synaptosomes ([3]; compound 50 μM): 126.9 ± 4.5%
- % Ca of control (control-100%), glutamate-induced 45Ca2+ uptake into synaptosomes ([3]; compound 100 μM): 111.9 ± 11.31%
- Influence on memory in the test recognition new localization of known object ([4]; Dose of Compound 0.05 mg/kg): +
- Influence on memory in the test recognition new localization of known object ([4]; Dose of Compound 0.1 mg/kg): +
- Influence on memory in the test recognition new localization of known object ([4]; Dose of Compound 0.5 mg/kg): −
- Influence on memory in the test recognition new localization of known object ([4]; Dose of Compound 1.0 mg/kg): +
- activity on memory compared with dimebon (in words) ([4]; comparison of effective doses): approximately two times higher
- time exploring the object in a new location, % of the total time ([4]; dose 0.05 mg/kg): 61.8±8.4%
- time exploring the object in the known position, % of the total time ([4]; dose 0.05 mg/kg): 38.2±8.4%
- time exploring the object in a new location, % of the total time ([4]; dose 0.1 mg/kg): 56.0±6.9%
- time exploring the object in the known position, % of the total time ([4]; dose 0.1 mg/kg): 42.7±6.9%
- effect of the dose on exploration time / memory (in words) ([4]; dose 0.5 mg/kg): disappearance of the stimulating effect on memory
- time exploring the object in a new location, % of the total time ([4]; dose 1 mg/kg): 61.5±8.9%
- time exploring the object in the known position, % of the total time ([4]; dose 1 mg/kg): 37.8±8.9%
- overall effect on memory (in words) [4]: stimulating effect on memory

Structure (SMILES): COc1ccc2c(c1)c1c(n2CCc2noc(-c3ccccc3)n2)CCN(C)C1 [Compound C4-5]
- concentration at which glutamate-induced 45Ca2+ uptake into synaptosomes was inhibited [3]: 1 to 25 µM
- inhibition of glutamate-induced 45Ca2+ uptake into synaptosomes ([3]; 10 μM (maximal inhibition)): 40%
- glutamate-induced 45Ca2+ uptake into synaptosomes of rat cortex, % Ca of control (control-100%) ([3]; C 0.1 μM): 136.4% and 136.4 ± 11.8%
- glutamate-induced 45Ca2+ uptake into synaptosomes of rat cortex, % Ca of control (control-100%) ([3]; C 0.5 μM): 124.6 ± 13.7%
- glutamate-induced 45Ca2+ uptake into synaptosomes of rat cortex, % Ca of control (control-100%) ([3]; C 1.0 μM): 99.8 ± 0.1%
- glutamate-induced 45Ca2+ uptake into synaptosomes of rat cortex, % Ca of control (control-100%) ([3]; C 5.0 μM): 84.2 ± 0.7%
- glutamate-induced 45Ca2+ uptake into synaptosomes of rat cortex, % Ca of control (control-100%) ([3]; C 10 μM): 59.9 ± 0.2%
- glutamate-induced 45Ca2+ uptake into synaptosomes of rat cortex, % Ca of control (control-100%) ([3]; C 25 μM): 98.6 ± 9.4%
- glutamate-induced 45Ca2+ uptake into synaptosomes of rat cortex, % Ca of control (control-100%) ([3]; C 50 μM): 111.7 ± 11.2%
- glutamate-induced 45Ca2+ uptake into synaptosomes of rat cortex, % Ca of control (control-100%) ([3]; C 100 μM): 148.4% and 148.4 ± 7.3%
- Influence on memory in the test recognition new localization of known object ([4]; Dose of Compound 0.05 mg/kg): −
- Influence on memory in the test recognition new localization of known object ([4]; Dose of Compound 0.1 mg/kg): −
- Influence on memory in the test recognition new localization of known object ([4]; Dose of Compound 0.5 mg/kg): +
- Influence on memory in the test recognition new localization of known object ([4]; Dose of Compound 1.0 mg/kg): +
- activity on memory: times weaker than dimebon ([4]; comparison of effective doses): approximately 10 times
- effect of the dose on exploration time / memory (in words) ([4]; dose 0.05 mg/kg): not effective
- effect of the dose on exploration time / memory (in words) ([4]; dose 0.1 mg/kg): not effective
- time exploring the object in a new location, % of the total time ([4]; dose 0.5 mg/kg): 56.2±7.6%
- time exploring the object in the known position, % of the total time ([4]; dose 0.5 mg/kg): 43.8±7.6%
- time exploring the object in a new location, % of the total time ([4]; dose 1 mg/kg): 60.6±8.4%
- time exploring the object in the known position, % of the total time ([4]; dose 1 mg/kg): 39.4±8.4%
- overall effect on memory (in words) [4]: stimulated memory
